Measured values published in ChEMBL document CHEMBL1828558, “Discovery of (+)-N-(3-aminopropyl)-N-[1-(5-benzyl-3-methyl-4-oxo-[1,2]thiazolo[5,4-d]pyrimidin-6-yl)-2-methylpropyl]-4-methylbenzamide (AZD4877), a kinesin spindle protein inhibitor and potential anticancer agent” (J Med Chem, 2011).

Key:
[1] = Plasma protein binding in human; format: ADME, cell-free; settings: read-out: PPB (converted)
[2] = Plasma protein binding in Wistar rat; format: ADME, cell-free; settings: read-out: PPB (converted)
[3] = tested on: Liver microsomes; assay: Intrinsic clearance in Wistar rat liver microsomes at 2 uM; format: ADME, Microsome
[4] = Clearance in Wistar rat; format: ADME, organism-based; settings: in vivo
[5] = species: Rattus norvegicus; assay: Hepatic blood flow in Wistar rat; format: ADME, organism-based, Liver
[6] = Volume of distribution in rat at 1 and 5 mg/kg, iv administered as bolus dose; format: ADME, organism-based; parameters: dose 5 mg/kg, route intravenous; settings: in vivo
[7] = Half-life in rat at 1 and 5 mg/kg, iv administered as bolus dose; format: ADME, organism-based; parameters: dose 5 mg/kg, route intravenous; settings: in vivo
[8] = tested on: Rattus norvegicus; assay: Hepatic blood flow in rat at 1 and 5 mg/kg, iv administered as bolus dose; format: ADME, organism-based, Liver; parameters: dose 5 mg/kg, route intravenous; settings: in vivo
[9] = AUC (infinity) in Wistar rat at 6 mg/kg, iv administered as a single bolus dose; format: ADME, organism-based; parameters: time infinity, dose 6 mg/kg, route intravenous; settings: plasma
[10] = Initial plasma concentration in Wistar rat at 6 mg/kg, iv administered as a single bolus dose; format: ADME, organism-based; parameters: dose 6 mg/kg, route intravenous
[11] = Clearance in Wistar rat at 6 mg/kg, iv administered as a single bolus dose; format: ADME, organism-based; parameters: dose 6 mg/kg, route intravenous; settings: in vivo
[12] = Half-life in Wistar rat at 6 mg/kg, iv administered as a single bolus dose; format: ADME, organism-based; parameters: dose 6 mg/kg, route intravenous; settings: in vivo
[13] = Drug level in fiber in Hans Wistar rat hollow fiber model implanted with human COLO205 cells at 6 mg/kg, iv after 24 hrs; format: ADME, organism-based, COLO 205; parameters: dose 6 mg/kg, route intravenous; settings: read-out: Drug uptake
[14] = Plasma concentration in Hans Wistar rat hollow fiber model implanted with human COLO205 cells at 6 mg/kg, iv after 24 hrs; format: ADME, organism-based, COLO 205; parameters: dose 6 mg/kg, route intravenous
[15] = Binding affinity to L-type calcium channel in guinea pig ileum by radioligand displacement assay; format: tissue-based, Cavia porcellus
[16] = Binding affinity to sodium channel in guinea pig atria by radioligand displacement assay; parameters: species or system Cavia porcellus
[17] = target: Cytochrome P450 2C19 (Homo sapiens, UniProt P33261); assay: Inhibition of human recombinant CYP2C19; format: ADME
[18] = Clearance in nude mouse; format: ADME, organism-based; settings: in vivo
[19] = target: Cytochrome P450 2C9 (Homo sapiens, UniProt P11712); assay: Inhibition of human recombinant CYP2C9; format: ADME
[20] = target: Cytochrome P450 2D6 (Homo sapiens, UniProt P10635); assay: Inhibition of human recombinant CYP2D6; format: ADME
[21] = target: T1, Kinesin-like protein KIF23 (Homo sapiens, UniProt Q02241); assay: Inhibition of human recombinant GST-MKLP1 after 20 mins by malachite green assay
T1 sequence (Q02241 whole entry): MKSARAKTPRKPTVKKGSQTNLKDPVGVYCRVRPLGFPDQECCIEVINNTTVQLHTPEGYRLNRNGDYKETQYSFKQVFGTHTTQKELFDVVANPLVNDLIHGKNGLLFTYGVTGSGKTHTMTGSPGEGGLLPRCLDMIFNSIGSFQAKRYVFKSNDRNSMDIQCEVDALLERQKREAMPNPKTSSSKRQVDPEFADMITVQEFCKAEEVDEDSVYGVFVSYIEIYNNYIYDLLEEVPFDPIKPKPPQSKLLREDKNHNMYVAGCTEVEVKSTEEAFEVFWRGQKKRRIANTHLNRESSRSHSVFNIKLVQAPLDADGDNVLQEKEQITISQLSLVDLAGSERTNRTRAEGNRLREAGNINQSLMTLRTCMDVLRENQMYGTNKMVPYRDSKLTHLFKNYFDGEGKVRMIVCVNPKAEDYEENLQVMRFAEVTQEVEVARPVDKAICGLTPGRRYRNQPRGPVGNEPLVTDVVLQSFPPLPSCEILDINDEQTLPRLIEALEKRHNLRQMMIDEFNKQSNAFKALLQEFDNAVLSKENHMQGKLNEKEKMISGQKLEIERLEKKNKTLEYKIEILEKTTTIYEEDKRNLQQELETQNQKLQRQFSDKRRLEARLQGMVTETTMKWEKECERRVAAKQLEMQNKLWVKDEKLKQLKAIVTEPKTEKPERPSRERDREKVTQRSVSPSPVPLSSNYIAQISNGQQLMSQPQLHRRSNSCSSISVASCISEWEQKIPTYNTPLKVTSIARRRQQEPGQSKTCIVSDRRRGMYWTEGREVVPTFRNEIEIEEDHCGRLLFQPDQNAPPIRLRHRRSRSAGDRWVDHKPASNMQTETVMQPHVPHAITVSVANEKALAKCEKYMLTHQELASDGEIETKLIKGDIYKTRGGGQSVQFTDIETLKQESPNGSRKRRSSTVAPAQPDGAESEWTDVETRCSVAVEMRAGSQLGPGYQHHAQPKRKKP

[22] = target: T2, Kinesin-1 heavy chain (Homo sapiens, UniProt P33176); assay: Inhibition of human GST-conventional kinesin ATPase activity after 20 mins by malachite green assay
T2 sequence (P33176 whole entry): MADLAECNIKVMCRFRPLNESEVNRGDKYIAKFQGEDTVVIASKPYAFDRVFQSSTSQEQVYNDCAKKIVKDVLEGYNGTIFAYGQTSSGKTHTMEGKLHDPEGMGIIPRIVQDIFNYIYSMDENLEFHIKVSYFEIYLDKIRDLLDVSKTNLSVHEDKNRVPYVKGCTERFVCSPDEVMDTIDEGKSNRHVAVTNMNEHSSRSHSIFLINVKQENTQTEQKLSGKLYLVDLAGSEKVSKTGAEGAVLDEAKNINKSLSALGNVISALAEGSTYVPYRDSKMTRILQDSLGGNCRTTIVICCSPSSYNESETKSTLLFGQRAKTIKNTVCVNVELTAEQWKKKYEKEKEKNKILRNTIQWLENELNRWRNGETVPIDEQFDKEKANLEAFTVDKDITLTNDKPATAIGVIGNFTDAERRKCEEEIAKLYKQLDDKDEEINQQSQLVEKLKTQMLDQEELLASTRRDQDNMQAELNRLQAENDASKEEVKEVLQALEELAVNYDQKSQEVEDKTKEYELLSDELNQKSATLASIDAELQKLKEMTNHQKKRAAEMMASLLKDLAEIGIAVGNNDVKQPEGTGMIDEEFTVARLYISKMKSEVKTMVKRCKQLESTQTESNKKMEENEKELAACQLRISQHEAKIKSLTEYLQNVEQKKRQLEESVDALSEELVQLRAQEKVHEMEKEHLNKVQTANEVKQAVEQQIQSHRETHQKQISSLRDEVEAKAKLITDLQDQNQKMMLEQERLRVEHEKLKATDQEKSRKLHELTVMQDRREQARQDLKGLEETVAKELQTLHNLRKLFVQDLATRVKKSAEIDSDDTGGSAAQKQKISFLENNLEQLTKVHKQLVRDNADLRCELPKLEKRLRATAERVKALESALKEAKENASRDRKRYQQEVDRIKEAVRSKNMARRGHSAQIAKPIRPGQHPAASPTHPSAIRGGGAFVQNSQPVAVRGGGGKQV

Chain of Cytochrome P450 2C19 (P33261 whole entry): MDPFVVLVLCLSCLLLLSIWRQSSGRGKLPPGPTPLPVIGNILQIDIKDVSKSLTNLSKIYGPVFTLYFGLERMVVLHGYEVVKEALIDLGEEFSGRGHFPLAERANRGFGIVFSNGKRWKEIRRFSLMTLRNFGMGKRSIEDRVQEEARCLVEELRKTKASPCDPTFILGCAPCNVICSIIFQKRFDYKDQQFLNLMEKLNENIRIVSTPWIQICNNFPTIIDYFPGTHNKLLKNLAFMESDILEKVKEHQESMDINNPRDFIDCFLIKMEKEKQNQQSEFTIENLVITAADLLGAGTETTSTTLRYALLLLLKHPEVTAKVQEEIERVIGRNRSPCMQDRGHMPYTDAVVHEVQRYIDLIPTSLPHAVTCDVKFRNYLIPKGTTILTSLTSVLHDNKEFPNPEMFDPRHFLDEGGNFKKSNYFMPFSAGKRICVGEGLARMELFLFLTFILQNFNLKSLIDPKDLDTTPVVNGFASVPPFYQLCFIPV
Chain of Cytochrome P450 2C9 (P11712 whole entry): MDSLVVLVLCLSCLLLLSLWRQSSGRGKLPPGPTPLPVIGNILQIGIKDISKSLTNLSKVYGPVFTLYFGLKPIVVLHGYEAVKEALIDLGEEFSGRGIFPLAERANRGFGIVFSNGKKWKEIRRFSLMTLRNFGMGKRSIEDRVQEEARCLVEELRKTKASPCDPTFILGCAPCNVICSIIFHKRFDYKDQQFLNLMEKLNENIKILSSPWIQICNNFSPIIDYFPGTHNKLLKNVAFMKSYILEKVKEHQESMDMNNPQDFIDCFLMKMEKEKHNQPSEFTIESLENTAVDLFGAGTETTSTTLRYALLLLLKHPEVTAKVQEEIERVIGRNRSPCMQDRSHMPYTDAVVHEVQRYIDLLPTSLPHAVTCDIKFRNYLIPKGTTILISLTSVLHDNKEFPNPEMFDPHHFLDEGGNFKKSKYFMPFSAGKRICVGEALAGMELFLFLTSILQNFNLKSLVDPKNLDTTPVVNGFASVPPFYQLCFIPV
Chain of Cytochrome P450 2D6 (P10635 whole entry): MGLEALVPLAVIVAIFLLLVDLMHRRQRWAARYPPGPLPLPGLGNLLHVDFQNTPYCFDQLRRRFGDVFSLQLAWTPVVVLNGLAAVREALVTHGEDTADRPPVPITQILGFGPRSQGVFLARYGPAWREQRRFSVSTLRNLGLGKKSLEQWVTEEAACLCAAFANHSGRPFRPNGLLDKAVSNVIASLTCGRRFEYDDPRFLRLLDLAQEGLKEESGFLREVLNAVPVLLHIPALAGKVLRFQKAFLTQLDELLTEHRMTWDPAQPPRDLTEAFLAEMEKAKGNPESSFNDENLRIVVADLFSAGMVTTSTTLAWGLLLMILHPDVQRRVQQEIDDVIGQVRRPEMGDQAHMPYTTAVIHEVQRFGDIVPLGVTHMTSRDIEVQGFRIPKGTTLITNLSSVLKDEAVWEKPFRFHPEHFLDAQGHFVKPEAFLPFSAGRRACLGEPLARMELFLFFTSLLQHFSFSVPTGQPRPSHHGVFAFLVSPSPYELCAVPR

## Cc1ccc(C(=O)N(CCCN)C(c2nc3snc(C)c3c(=O)n2Cc2ccccc2)C(C)C)cc1 (single isomer, unassigned; (+)) [AZD-4877]
[1]
  fraction unbound: 0.046
[2]
  fraction unbound: 0.044
[3]
  clearance: < 10 µL/min/mg
[4]
  clearance: 36 mL/min/kg
[5]
  QH: 52%
[6]
  Vd: 10 L/kg
[7]
  half-life: 3.5 h
[8]
  QH: 50%
[9]
  AUC(0-inf): 2840 ng·h/mL
[10]
  C0: 1080 ng/mL
[11]
  clearance: 36 mL/min/kg
[12]
  half-life: 3.5 h
[13]
  concentration at 24 h: 30.7 ng/mL
[14]
  concentration at 24 h: 2.8 ng/mL
[15]
  IC50: 2.7 µM
[16]
  IC50: > 30 µM
[17]
  IC50: > 10 µM
[18]
  clearance: 17 mL/min/kg
[19]
  IC50: > 10 µM
[20]
  IC50: > 10 µM
[21]
  IC50: 50 µM
[22]
  IC50: > 100 µM
